Test results as given in US20240199702A1, “CELL-PERMEABLE CYCLIC PEPTIDES AND USES THEREOF” (Unnatural Products Inc., priority 2021, published 2024).
Where a SMILES comes first, the peptide text is derived from it. [ ]: non-standard residue; d: D form. The star is where a group is joined. Ala(4-thiazolyl) = N[C@@H](Cc1cscn1)C(=O)O; Phe(4-Cl) = N[C@@H](Cc1ccc(Cl)cc1)C(=O)O; Phe(4-F) = N[C@@H](Cc1ccc(F)cc1)C(=O)O; NMeF = CN[C@@H](Cc1ccccc1)C(=O)O; hSer = N[C@@H](CCO)C(=O)O; NMeA = CN[C@@H](C)C(=O)O; dNMeA = CN[C@H](C)C(=O)O; Butyryl = CCCC(=O)*; Nme = COCCNCC(=O)O

Assays:
[1] = system: MOLM-13 cells; test: Cellular Fluorescence Assay 1 (CellTiter-Glo, 72 hours); type: cell-based
Protocol: Cellular Fluorescence Assay 1
(§1) MOLM-13 cells were grown in suspension in T75 flasks in RPMI medium with 10% fetal bovine serum (FBS) at 37° C. with 5% CO2. 40 μL ofMOLM-13 cells were plated into columns 1-22 of white, flat bottom, 384 well plates at a density of 1,000 cells per well in RPMI with 10% FBS. Columns 23 and 24 were filled with 40 μL of media as a positive control. 100 nL of compounds dissolved in DMSO were pin transferred into columns 3-22 of the 384 well plate. Columns 1 and 2 served as negative control wells. Plates were incubated for 72 hours at 37° C. with 5% CO2. After incubation, the cells were given 10 μL of CellTiter-Glo® (Promega®). Luminescence was read on a Molecular Devices SpectraMax i3x plate reader.

[2] = system: MV4-11 cells; test: Cellular Fluorescence Assay 2 (CellTiter-Glo, 72 hours); type: cell-based
Protocol: Cellular Fluorescence Assay 2
as §1, with “MV4-11” for “MOLM-13”, “of MV4-11” for “ofMOLM-13”

[3] = system: WaGa cells; test: Cellular Fluorescence Assay 3 (CellTiter-Glo, 72 hours); type: cell-based
Protocol: Cellular Fluorescence Assay 3
as §1, with “WaGa” for “MOLM-13”, “of WaGa” for “ofMOLM-13”

[4] = biological target: T1, Human MDM4 (HDM4) 1-114 (Homo sapiens, UniProt O15151); test: Fluorescence Polarization Assay 2 (MDM4/p53 peptide); type: binding; details: FAM-labeled p53 peptide, 60 minutes
T1 construct: Human MDM4 (HDM4) 1-114
T1 sequence (O15151 1-114): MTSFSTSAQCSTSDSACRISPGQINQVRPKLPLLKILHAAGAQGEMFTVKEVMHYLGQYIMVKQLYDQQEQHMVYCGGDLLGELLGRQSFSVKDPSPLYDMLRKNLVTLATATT
Protocol: Fluorescence Polarization Assay 2
(§2) Human MDM4 (HDM4) 1-114 (20 μL) and FAM-labeled GGTSFAEYWNLLSP —NH2, 20 nM and 5 nM respectively in 10 mM Tris, 50 mM NaCl, 0.01% Tween20, and 1 mM DTT at pH 7.4 were dispensed into an opaque, black, 384 well plate. Compounds dissolved in DMSO were pin transferred (−100-200 nL) to the 384 well plate containing the MDM4/p53 solution. After incubation for 60 minutes, the fluorescence polarization was read on a Molecular Devices SpectraMax plate reader equipped with a Fluorescein FP cartridge. In addition to probe alone (positive control) and probe/MDM4 (negative control), a titration of linear p53(18-26) was included on every plate as an additional control. IC50 values were fit using either Prism or Collaborative Drug Discovery.

[5] = system: MKL-1 cells; test: Cellular Fluorescence Assay 4 (CellTiter-Glo, 72 hours); type: cell-based
Protocol: Cellular Fluorescence Assay 4
as §1, with “MKL-1” for “MOLM-13”, “MKL-1” for “ofMOLM-13”, “reader. In some embodiments, the cyclic peptide described herein is a cyclic peptide depicted in Table 1: […]” for “reader.”

[6] = biological target: T2, Human MDM2 (HDM2) 1-116 (Homo sapiens, UniProt Q00987); test: Fluorescence Polarization Assay 1 (MDM2/p53 peptide); type: binding; details: FAM-labeled p53 peptide, 60 minutes
T2 construct: Human MDM2 (HDM2) 1-116
Protocol: Fluorescence Polarization Assay 1
as §2, with “MDM2 (HDM2) 1-116” for “MDM4 (HDM4) 1-114”, “GGTSFAEYWNLLSP-NH2, 10” for “GGTSFAEYWNLLSP —NH2, 20”, “(˜100-200” for “(−100-200”, “MDM2/p53” for “MDM4/p53”, “probe/MDM2” for “probe/MDM4”

T2 sequence (Q00987 1-116): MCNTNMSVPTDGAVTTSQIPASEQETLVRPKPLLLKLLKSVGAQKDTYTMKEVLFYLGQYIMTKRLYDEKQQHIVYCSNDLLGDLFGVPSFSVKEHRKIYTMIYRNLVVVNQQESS

With `CCCC(=O)O[C@H](C)[C@@H]1NC(=O)[C@H](Cc2ccc(F)cc2)NC(=O)CN(CCOC)C(=O)[C@@H](C)N(C)C(=O)[C@H](Cc2cscn2)NC(=O)[C@H](C)N(C)C(=O)[C@H](CCOC)NC(=O)[C@H]2CCCN2C(=O)[C@H](Cc2ccccc2)N(C)C(=O)[C@H](Cc2ccc(Cl)cc2)NC1=O` [compound 6] (cyclo([Ala(4-thiazolyl)][dNMeA][Nme][Phe(4-F)]T(Butyryl)[Phe(4-Cl)][NMeF][dP][hSer](Me)[NMeA])) the IC50 [1] was 50 to 100 nM, the IC50 [2] was < 50 nM and the IC50 [3] was < 50 nM. For the same molecule, the IC50 [4] was 50 to 100 nM, the IC50 [5] was < 500 nM and the IC50 [6] was 25 to 50 nM.
